Data on 37 molecules can be found in PMC7144120, “Psoralen Derivatives as Inhibitors of Mycobacterium tuberculosis Proteasome” (Molecules, 2020).

Molecules are shown by their SMILES.

For one test, the target named is T1, Mtb proteasome (Mycobacterium tuberculosis, UniProt P9WHT9).
T1 construct: made in house
Briefly: biochemical. It counts as biochemical.

The subject of another test is ß5i of IP. The following applies: cited from earlier work; for RA at 10 µM against ß5i of IP: residual activity of β5i in the presence of 10 μM compound; for IC50: read-out: IC50 against ß5i of IP.

One may read the IC50 as the concentration at which inhibition is half-maximal.

T1 sequence (P9WHT9 whole entry, looked up): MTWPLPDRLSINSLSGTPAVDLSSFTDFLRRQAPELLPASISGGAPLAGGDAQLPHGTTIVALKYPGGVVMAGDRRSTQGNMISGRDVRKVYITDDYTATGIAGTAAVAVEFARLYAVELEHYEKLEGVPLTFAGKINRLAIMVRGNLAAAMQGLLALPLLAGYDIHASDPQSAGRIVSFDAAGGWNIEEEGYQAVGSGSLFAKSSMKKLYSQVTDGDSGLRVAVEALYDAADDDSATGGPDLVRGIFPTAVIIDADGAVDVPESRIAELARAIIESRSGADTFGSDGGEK

In the case of `Cc1c(CC(=O)N(C)CC#N)c(=O)oc2cc3occ(-c4ccc(Br)cc4)c3cc12` [Compound 52], on Mtb proteasome, the “RA at 100 µM against Mtb” value stood at 70%. The “RA at 10 µM against ß5i of IP” value in the test on ß5i of IP is given as 86%.

In the case of `Cc1c(CC(=O)N(C)CC#N)c(=O)oc2cc3occ(C(C)(C)C)c3cc12` [Compound 53], the “RA at 100 µM against Mtb” value at Mtb proteasome was 97%. The “RA at 10 µM against ß5i of IP” value in the test with ß5i of IP is reported as 96%.

With `Cc1coc2cc3oc(=O)c(CC(=O)N(C)CC#N)c(C)c3cc12` [Compound 54], at Mtb proteasome, the “RA at 100 µM against Mtb” value came out at 95%. Moreover, the “RA at 10 µM against ß5i of IP” value in the test on ß5i of IP was 99%.

Regarding `Cc1cc(-c2coc3cc4oc(=O)c(CC(=O)N(C)CC#N)c(C)c4cc23)c(C)s1` [Compound 55], at Mtb proteasome, the “RA at 100 µM against Mtb” value was found to be 88%. For the same molecule, in the test with ß5i of IP, the “RA at 10 µM against ß5i of IP” value is reported as 103%.

`Cc1c(CC(=O)N(C)CC#N)c(=O)oc2cc3occ(-c4ccco4)c3cc12` [Compound 56]: on Mtb proteasome, the “RA at 100 µM against Mtb” value came out at 53%. Further, the “RA at 10 µM against ß5i of IP” value in the test on ß5i of IP is reported as 103%.

Regarding `Cc1cc(-c2coc3cc4oc(=O)c(CC(=O)N(C)CC#N)c(C)c4cc23)c(C)o1` [Compound 57], on Mtb proteasome, the “RA at 100 µM against Mtb” value was determined as 100%. Besides, the “RA at 10 µM against ß5i of IP” value in the test on ß5i of IP was 96%.

`Cc1c(CC(=O)N(C)CC#N)c(=O)oc2cc3occ(C4CCCCC4)c3cc12` [Compound 58]: the “RA at 100 µM against Mtb” value at Mtb proteasome was found to be 100%. Moreover, in the test on ß5i of IP, the “RA at 10 µM against ß5i of IP” value was 101%.

`Cc1c(CC(=O)NCC#N)c(=O)oc2cc3occ(-c4ccccc4)c3cc12` [Compound 59]: the “RA at 100 µM against Mtb” value on Mtb proteasome was determined as 92%. Also, in the test with ß5i of IP, the “RA at 10 µM against ß5i of IP” value was 101%.

With `Cc1c(CC(=O)NCC#N)c(=O)oc2cc3occ(-c4ccc(Br)cc4)c3cc12` [Compound 60], the “RA at 100 µM against Mtb” value on Mtb proteasome is recorded as 87%. For the same molecule, the “RA at 10 µM against ß5i of IP” value in the test on ß5i of IP is on record as 105%.

Take `Cc1c(CC(=O)NCC#N)c(=O)oc2cc3occ(C(C)(C)C)c3cc12` [Compound 61]: at Mtb proteasome, the “RA at 100 µM against Mtb” value is listed as 92%. In the test with ß5i of IP, the “RA at 10 µM against ß5i of IP” value is given as 91%.

For the molecule `Cc1cc(-c2coc3cc4oc(=O)c(CC(=O)NCC#N)c(C)c4cc23)c(C)s1` [Compound 63], the “RA at 100 µM against Mtb” value on Mtb proteasome worked out at 95%. For the same molecule, in the test on ß5i of IP, the “RA at 10 µM against ß5i of IP” value was 101%.

Consider `Cc1c(CC(=O)NCC#N)c(=O)oc2cc3occ(-c4ccco4)c3cc12` [Compound 64], for which the “RA at 100 µM against Mtb” value on Mtb proteasome turned out to be 91%. Further, the “RA at 10 µM against ß5i of IP” value in the test on ß5i of IP is 98%.

For `Cc1c(CC(=O)NCC#N)c(=O)oc2cc3occ(C4CCCCC4)c3cc12` [Compound 65], the “RA at 100 µM against Mtb” value on Mtb proteasome was found to be 91%. In the test on ß5i of IP, the “RA at 10 µM against ß5i of IP” value was 99%.

Take `Cc1c(CCC(=O)ON2C(=O)CCC2=O)c(=O)oc2cc3occ(-c4ccccc4)c3cc12` [Compound 66]: the “RA at 100 µM against Mtb” value at Mtb proteasome is 66%. Further, in the test on ß5i of IP, the IC50 is 9 ± 2 nM.

As for `Cc1c(CCC(=O)ON2C(=O)CCC2=O)c(=O)oc2cc3occ(-c4ccc(Br)cc4)c3cc12` [Compound 67], the “RA at 100 µM against Mtb” value at Mtb proteasome is 96%. The IC50 with ß5i of IP is 1900 ± 900 nM.

Consider `COc1ccc(-c2coc3cc4oc(=O)c(CCC(=O)ON5C(=O)CCC5=O)c(C)c4cc23)cc1` [Compound 68], for which the “RA at 100 µM against Mtb” value at Mtb proteasome is given as 93%. Also, in the test with ß5i of IP, the IC50 was 640 ± 130 nM.

Take `COc1cccc(-c2coc3cc4oc(=O)c(CCC(=O)ON5C(=O)CCC5=O)c(C)c4cc23)c1` [Compound 69]: at Mtb proteasome, the “RA at 100 µM against Mtb” value is reported as 72%. Further, the half-inhibitory concentration (IC50) in the test with ß5i of IP is 930 ± 570 nM.

On to `Cc1c(CCC(=O)ON2C(=O)CCC2=O)c(=O)oc2cc3occ(C(C)(C)C)c3cc12` [Compound 70], for which the “RA at 100 µM against Mtb” value at Mtb proteasome is listed as 70%. Moreover, in the test on ß5i of IP, the “RA at 10 µM against ß5i of IP” value is 41%.

For the molecule `Cc1coc2cc3oc(=O)c(CCC(=O)ON4C(=O)CCC4=O)c(C)c3cc12` [Compound 71], the “RA at 100 µM against Mtb” value at Mtb proteasome was found to be 97%. Besides, the “RA at 10 µM against ß5i of IP” value in the test on ß5i of IP is on record as 66%.

Turning to `Cc1cc(-c2coc3cc4oc(=O)c(CCC(=O)ON5C(=O)CCC5=O)c(C)c4cc23)c(C)s1` [Compound 72], the “RA at 100 µM against Mtb” value at Mtb proteasome was 95%. Moreover, the IC50 with ß5i of IP was 1800 ± 800 nM.

On to `Cc1c(CC(=O)ON2C(=O)CCC2=O)c(=O)oc2cc3occ(-c4ccccc4)c3cc12` [Compound 73], for which the “RA at 100 µM against Mtb” value on Mtb proteasome came out at 79%. For the same molecule, the half-inhibitory concentration (IC50) in the test on ß5i of IP was 6360 ± 610 nM.

Turning to `Cc1c(CC(=O)ON2C(=O)CCC2=O)c(=O)oc2cc3occ(-c4ccc(Br)cc4)c3cc12` [Compound 74], the “RA at 100 µM against Mtb” value on Mtb proteasome stood at 61%. In the test with ß5i of IP, the “RA at 10 µM against ß5i of IP” value is reported as 101%.

In the case of `Cc1c(CC(=O)ON2C(=O)CCC2=O)c(=O)oc2cc3occ(C(C)(C)C)c3cc12` [Compound 75], at Mtb proteasome, the “RA at 100 µM against Mtb” value is given as 88%. Further, the “RA at 10 µM against ß5i of IP” value in the test with ß5i of IP is on record as 53%.

Take `Cc1coc2cc3oc(=O)c(CC(=O)ON4C(=O)CCC4=O)c(C)c3cc12` [Compound 76]: the “RA at 100 µM against Mtb” value at Mtb proteasome amounted to 53%. Besides, in the test on ß5i of IP, the “RA at 10 µM against ß5i of IP” value was 101%.

`Cc1c(CC(=O)ON2C(=O)CCC2=O)c(=O)oc2cc3occ(-c4ccco4)c3cc12` [Compound 77]: the “RA at 100 µM against Mtb” value at Mtb proteasome was 56%. Further, the “RA at 10 µM against ß5i of IP” value in the test on ß5i of IP was 44%.

On to `Cc1c(CC(=O)ON2C(=O)CCC2=O)c(=O)oc2cc3occ(C4CCCCC4)c3cc12` [Compound 78], for which the “RA at 100 µM against Mtb” value on Mtb proteasome was determined as 98%. Moreover, the “RA at 10 µM against ß5i of IP” value in the test on ß5i of IP was 62%.

In the case of `Cc1c(CCC(=O)ON2C(=O)CCC2=O)c(=O)oc2c(C)c3occ(-c4ccccc4)c3cc12` [Compound 79], the “RA at 100 µM against Mtb” value at Mtb proteasome is reported as 100%. Also, in the test with ß5i of IP, the IC50 is 3260 ± 1490 nM.

On to `Cc1c(CNC(=O)CC#N)c(=O)oc2cc3occ(-c4ccccc4)c3cc12` [Compound 81], for which the “RA at 100 µM against Mtb” value on Mtb proteasome is recorded as 100%. Moreover, the “RA at 10 µM against ß5i of IP” value in the test with ß5i of IP is on record as 101%.

As to `C=CC(=O)NCc1c(C)c2cc3c(-c4ccccc4)coc3cc2oc1=O` [Compound 82], the “RA at 100 µM against Mtb” value at Mtb proteasome was 68%. Also, in the test with ß5i of IP, the “RA at 10 µM against ß5i of IP” value is 90%.

`CC=CC(=O)NCc1c(C)c2cc3c(-c4ccccc4)coc3cc2oc1=O` [Compound 83]: the “RA at 100 µM against Mtb” value on Mtb proteasome is listed as 52%. In addition, the “RA at 10 µM against ß5i of IP” value in the test with ß5i of IP was 116%.

On to `Cc1c(N)c(=O)oc2cc3occ(-c4ccccc4)c3cc12` [Compound 84], for which, on Mtb proteasome, the “RA at 100 µM against Mtb” value worked out at 100%. Besides, the “RA at 10 µM against ß5i of IP” value in the test on ß5i of IP was 88%.

Regarding `Cc1c(NC(=O)CC#N)c(=O)oc2cc3occ(-c4ccccc4)c3cc12` [Compound 85], the “RA at 100 µM against Mtb” value at Mtb proteasome stood at 93%. Moreover, the “RA at 10 µM against ß5i of IP” value with ß5i of IP is 115%.

As for `C=CC(=O)Nc1c(C)c2cc3c(-c4ccccc4)coc3cc2oc1=O` [Compound 86], the “RA at 100 µM against Mtb” value on Mtb proteasome was determined as 95%. For the same molecule, in the test on ß5i of IP, the IC50 was 20500 ± 1360 nM.

Regarding `C/C=C/C(=O)Nc1c(C)c2cc3c(-c4ccccc4)coc3cc2oc1=O` [Compound 87], the “RA at 100 µM against Mtb” value at Mtb proteasome amounted to 93%. Moreover, in the test with ß5i of IP, the “RA at 10 µM against ß5i of IP” value is recorded as 102%.

Take `Cc1c(-c2nsc(=O)o2)c(=O)oc2cc3occ(-c4ccccc4)c3cc12` [Compound 88]: the “RA at 100 µM against Mtb” value at Mtb proteasome was found to be 84%. In addition, in the test on ß5i of IP, the IC50 is 13 ± 4 nM.

With `Cc1c(Cc2nsc(=O)o2)c(=O)oc2cc3occ(-c4ccccc4)c3cc12` [Compound 89], the “RA at 100 µM against Mtb” value at Mtb proteasome was found to be 65%. Further, the IC50 with ß5i of IP is 120 ± 50 nM.

Regarding `Cc1c(CCc2nsc(=O)o2)c(=O)oc2cc3occ(-c4ccccc4)c3cc12` [Compound 90], on Mtb proteasome, the “RA at 100 µM against Mtb” value turned out to be 69%. Besides, the IC50 in the test on ß5i of IP was 200 ± 40 nM.
